Five compounds from patent US8410130B2, “Synthesis of 8H-3A-aza-cyclopenta [A ]indenes and 5,10-dihydropyrrolo[1,2-B]isoquinolines derivatives and their use as antitumor therapeutic agents” (Academia Sinica, priority 2007, dated 2013) can be followed below.

In one data set the test system is CCRF-CEM/VBL. Put plainly: In vitro cytotoxicity, XTT assay, vinblastine resistant subline. The class given is cell-based, human. As to conditions: for IC50: Homo sapiens, CCRF-CEM, XTT assay, 72-hr incubation; for fold of cross-resistant, CCRF-CEM/VBL vs IC50 of the parent cell line: numbers in brackets. The source says:
(§1) Human colon carcinoma HCT-116 cells, human prostate adenocarcinoma PC-3 and adenocarcinoma SK-OV-3 cells were obtained from American Type Culture Collection (ATCC, Rockville, Md.). Human mammary carcinoma (MX-1) tumor cells were obtained from MSKCC cell bank. The CCRF-CEM human lymphoblastic leukemia cells and their vinblastine resistant subline (CCRF-CEM/VBL, 680-fold resistance in vitro) were obtained from Dr. William Beck of the University of Illinois, Chicago, and CCRF-CEM/Taxol (330-fold resistance in vitro). Resistant cells CCRF-CEM/taxol were produced by exposing the parent cells to increasing sublethal concentration (IC50-IC90) of paclitaxel for six months.
(§2) In preparation for in vitro cytotoxicity assays, cells were cultured at an initial density 2-5×10^4 cells per milliliter. They were maintained in a 5% CO2-humidified atmosphere at 37° C. in RPMI medium 1640 (GIBCO/BRL) containing penicillin (100 units/mL), streptomycin (100 μg/mL, GIBCO/BRL), and 5% heat-inactivated FBS. For cells grown in suspension (such as CCRF-CEM and its sublines), cytotoxicity was measured, by using XTT microculture method in 96-well microtiter plates (Scudiero D A et al., Cancer Res. 1988, 48, 4827-4833). For solid tumor cells growing in a monolayer (such as MX-1 and HCT-116), cytotoxicity of the drug was determined, in duplicate, in 96-well microtiter plates by using the sulforhodamine B method (Skehan P et al., J. Natl. Cancer Inst 1990, 82, 1107-1112). For both methods, the absorbance of each well was measured with a microplate reader (Power Wave XS, Bio-Tek, Winooski, Vt.) after 72-hr incubation as described previously (Chou T-C et al., Proc. Natl. Acad. Sci. USA 2001, 98, 8113-8118). Dose-effect relationship data from 6 to 7 concentrations of each drug, in duplicate, were analyzed by using a computer program (Chou T-C et al., ComboSyn, Inc., Paramus, N J. 2005) based on the median-effect principle and plot (Chou T-C et al., Adv. Enzyme Regul. 1984, 22, 27-55; Chou T-C, Pharmacol. Rev. 2006, 58, 621-681).
(§3) The IC50 is defined by the concentration required to inhibit tumor cell growth by 50%. […] The growth inhibition of the compounds disclosed herein against human lymphoblastic leukemic cells (CCRF-CEM) and its drug-resistant sublines (resistant to vinblastine and taxol, CCRF-CEM/VBL and CCRF-CEM/taxol, respectively) is also shown in Table 5. […] Thus, the compounds disclosed herein are effective against multiple drug resistant tumors.
(In general: Formazan colour is commonly taken as a measure of viable cells.)

The test system of data set [1] is Human colon carcinoma HCT-116 cells. Description: In vitro cytotoxicity, sulforhodamine B (SRB) assay. As to conditions: Homo sapiens, HCT-116, 72-hr incubation. Type of data set: cell-based.
Description: as §1, §2, §3
A general note: Sulforhodamine B stains cellular protein and so reports cell mass.

Data set [2] concerns Human mammary carcinoma (MX-1) tumor cells. The data set is described as above. Type of data set: cell-based. As to conditions: Homo sapiens, 72-hr incubation.
Description: as §1, §2, §3

Another data set has as its system CCRF-CEM/Taxol. Put plainly: In vitro cytotoxicity, XTT assay, taxol resistant subline. The class given is cell-based, human. The conditions noted are these: for IC50: Homo sapiens, CCRF-CEM, XTT assay, 72-hr incubation; for fold of cross-resistant, CCRF-CEM/Taxol vs IC50 of the parent cell line: numbers in brackets.
Description: as §1, §2, §3

The subject of data set [3] is human mammary carcinoma MX-1 xenograft. Description: Therapeutic effect in nude mice bearing MX-1 xenograft. The class given is in vivo. As to conditions: intravenous injection. On the procedure:
FIGS. 2A-B illustrates the therapeutic effect of DA-1090, 1099, 1124, 1012 and 1107 in nude mice bearing human mammary carcinoma MX-1 xenograft (i.v. inj, n=3-4), average tumor size changes (FIG. 2A) and average body weight changes (FIG. 2B).
(§4) Athymic nude mice bearing the nu/nu gene were obtained from NCI, Frederick, Md. and used for all human tumor xenografts. Male nude mice, 6 weeks or older, weighing 20-24 g or more were used. Compounds were administered via the tail vein for i.v. injection or infusion as described previously (Chou T-C et al., Proc. Natl. Acad. Sci. USA 2001, 98, 8113-8118). Various formulations were prepared for injections into the mice for chemotherapeutic studies. As an example, a drug was dissolved in DSMO to make a 25 mg/ml fresh solution, 0.4 ml of this solution was mixed with 0.3 ml of Tween 80, plus 1.3 ml to make 2 ml of 5 mg/ml solution. Bolus injection volume was 0.1-0.2 ml per mouse.
Athymic nude mice bearing the nu/nu gene were used for human breast tumor MX-1 xenograft (FIGS. 2, 2A and 2B). Nude mice were obtained from National Cancer Institute, Frederick, Md. Male mice, 6 weeks old or older, weighing 22 g or more were used for experiments with subcutaneous tumor inoculation as described previously (Chou T-C, Pharmacol. Rev. 2006, 58, 621-681). Drug was administrated via the tail vein by iv injection. Tumor volumes were assessed by measuring length×width×height (or width) by using caliper. An example of vehicle used was 20 μL DMSO in 180 μL saline. All animal studies were conducted in accordance with the guidelines of the U.S. National Institutes of Health Guide for the Care and Use of Animals and the protocol approved by the Institutional Animal Care and Use Committee.

Data set [4] has as its system CCRF-CEM human lymphoblastic leukemia cells. Description: In vitro cytotoxicity, XTT assay, 72-hr incubation. The conditions noted are these: Homo sapiens, CCRF-CEM. The class given is cell-based.
Description: as §1, §2, §3

Data set [5] has as its system ovarian adenocarcinoma SK-OV-3 xenograft. Description: Therapeutic effect in nude mice bearing SK-OV-3 xenograft. The class given is in vivo. The conditions noted are these: intravenous injection, on day 22. As for the experimental part: FIGS. 4A-B illustrates the therapeutic effects of DA-1090, 1099, 1107 in nude mice bearing ovarian adenocarcinoma SK-OV-3 xenograft (i.v. inj., n=3), average tumor size changes (FIG. 4A) and average body weight changes (FIG. 4B).
as §4
(§5) The therapeutic effects of N-mustard DA-1099 against human prostate adenocarcinoma PC-3 s.c. xenograft in nude mice is shown in FIGS. 3, 3A and 3B. xenograft (i.v. inj., n=3), average tumor size changes (FIG. 3A) and average body weight changes (FIG. 3B). […] Under optimal therapeutic conditions, intravenous injection, of DA-1090, 1099, and 1107, 20 (QD×4), 50 (QD×3), and 20 (QD×4) mg/kg, respectively, yielded 53%, 78%, and 71% tumor suppression, respectively, on day 22.

Data set [6] has as its system human prostate adenocarcinoma PC-3 xenograft. Put plainly: Therapeutic effect in nude mice bearing PC-3 xenograft. The class given is in vivo. As to conditions: 50 mg/kg, QD×4, i.v. inj. On the procedure:
FIGS. 3A-B illustrates the therapeutic effect of DA-1099 in nude mice bearing human prostate adenocarcinoma PC-3 xenograft (i.v. inj., n=3), average tumor size changes (FIG. 3A) and average body weight changes (FIG. 3B).
as §4, §5

The mark [7] stands for this setting: 18 mg/kg, every other two days (Q2D), two times.
The mark [8] stands for this setting: 30 mg/kg, every other two days (Q2D), two times.
[9] abbreviates: 15 mg/kg, every other two days (Q2D), two times.

The IC50 is the point on the concentration scale where inhibition reaches its midpoint. Read a low IC50 as higher potency. For `CNC(=O)OCc1c(COC(=O)NC)c(-c2ccc(OC)cc2)n2c1Cc1ccccc1-2` [DA-1012, Methylcarbamic acid 3-(4-methoxy-phenyl)-2-methylcarbamoyloxymethyl-8H-3a-azacyclopenta[a]inden-1-ylmethyl ester], the IC50 in the data set with CCRF-CEM/VBL was 70 nM; in data set [1], 2740 nM; in data set [2], 1940 nM; in the data set with CCRF-CEM/Taxol it was 58 nM; in data set [4], 49 nM. For the same compound, the “fold of cross-resistant, CCRF-CEM/VBL vs IC50 of the parent cell line” value (shortened to “fold of cross-resistant, CCRF-CEM/VBL”) in the data set with CCRF-CEM/VBL is “[1.4x]”. Also, the “fold of cross-resistant, CCRF-CEM/Taxol vs IC50 of the parent cell line” value (“fold of cross-resistant, CCRF-CEM/Taxol” for short) in the data set with CCRF-CEM/Taxol is “[1.2x]”. In data set [3] (5 mg/kg, daily (QD) 3 times), the “antitumor therapeutic effect (tumor size)” value (from here on “antitumor therapeutic effect”) is given as “tumor total disappearance”. The toxicity entry in data set [3] (5 mg/kg, daily (QD) 3 times) is reported as “low toxicity”.

For `Cc1c(CO)c(CO)c2n1-c1ccccc1C2` [DA-1090, (2-Hydroxymethyl-3-methyl-8H-3a-aza-cyclopenta[a]inden-1-yl)methanol], the IC50 in the data set on CCRF-CEM/VBL came to 29.7 nM; in data set [1], 332 nM; in data set [2], 357 nM; in the data set with CCRF-CEM/Taxol it was 66.3 nM; in data set [4] it was 76 nM. Besides, the “fold of cross-resistant, CCRF-CEM/VBL” value in the data set with CCRF-CEM/VBL is “[0.39x]^c”. Besides, the “fold of cross-resistant, CCRF-CEM/Taxol” value in the data set on CCRF-CEM/Taxol was “[0.87x]”. Further, the “antitumor therapeutic effect” value in data set [3] (setting [7]) is listed as “tumor total disappearance”. Moreover, the toxicity entry in data set [3] (setting [7]) is given as “low toxicity”. This compound also yielded a tumor suppression in data set [5] (20 mg/kg (QD×4)) of 53%.

Regarding `CCc1c(CO)c(CO)c2n1-c1ccccc1C2` [DA-1099, (3-Ethyl-2-hydroxymethyl-8H-3a-azacyclopenta[a]inden-1-yl)methanol], the IC50 was 133 nM in the data set with CCRF-CEM/VBL; 825 nM in data set [1]; 1080 nM in data set [2]; 229 nM in the data set with CCRF-CEM/Taxol; 356 nM in data set [4]. Also, the “fold of cross-resistant, CCRF-CEM/VBL” value in the data set with CCRF-CEM/VBL was “[0.37x]”. Besides, in the data set with CCRF-CEM/Taxol, the “fold of cross-resistant, CCRF-CEM/Taxol” value is “[0.64x]”. For the same compound, in data set [6], the tumor-growth suppression result is given as “complete tumor-growth suppression”. Also, the “antitumor therapeutic effect” value in data set [3] (18 mg/kg, daily (QD) 3 times) is on record as “tumor total disappearance”. For the same compound, the toxicity entry in data set [3] (18 mg/kg, daily (QD) 3 times) is “low toxicity”. For the same compound, the tumor suppression in data set [5] (50 mg/kg (QD×3)) is 78%.

On to `Cc1c(CO)c(CO)c2n1Cc1ccccc1C2` [DA-1107, (2-Hydroxymethyl-3-methyl-5,10-dihydropyrrolo[1,2-b]isoquinolin-1-yl)methanol], for which the IC50 worked out at 93 nM in the data set on CCRF-CEM/VBL; 281 nM in data set [1]; 616 nM in data set [2]; 98 nM in the data set with CCRF-CEM/Taxol; 81 nM in data set [4]. Besides, the “fold of cross-resistant, CCRF-CEM/VBL” value in the data set on CCRF-CEM/VBL was “[1.15x]”. In addition, the “fold of cross-resistant, CCRF-CEM/Taxol” value with CCRF-CEM/Taxol is “[1.21x]”. Further, the “antitumor therapeutic effect” value in data set [3] (setting [8]) is “tumor total disappearance”. Moreover, the toxicity result in data set [3] (setting [8]) was “low toxicity”. Further, in data set [5] (20 mg/kg (QD×4)), the tumor suppression is on record as 71%.

For the compound `CNC(=O)OCc1c(COC(=O)NC)c(-c2ccccc2OC)n2c1Cc1ccccc1-2` [DA-1124, Methylcarbamic acid 3-(2-methoxyphenyl)-2-methylcarbamoyloxymethyl-8H-3a-aza-cyclopenta[a]inden-1-ylmethyl ester], the IC50 in the data set on CCRF-CEM/VBL was found to be 243 nM; in data set [1], 151 nM; in data set [2], 1330 nM; in the data set on CCRF-CEM/Taxol it was 360 nM; in data set [4], 136 nM. Besides, in the data set on CCRF-CEM/VBL, the “fold of cross-resistant, CCRF-CEM/VBL” value was “[1.79x]”. For the same compound, the “fold of cross-resistant, CCRF-CEM/Taxol” value with CCRF-CEM/Taxol is “[2.65x]”. For the same compound, the “antitumor therapeutic effect” value in data set [3] (setting [9]) is recorded as “tumor total disappearance”. Moreover, in data set [3] (setting [9]), the toxicity result is “low toxicity”.
